US6489469B1, “Method for storing or transporting erythritol solution” (Nikken Chemicals Co., Ltd., priority 1999, dated 2002)

How the values were obtained:
[1] = system: Bacillus subtilis IFO 3134; experiment: Viable Count of Bacillus subtilis IFO 3134 in Erythritol Solution; assay type: cell-based
Protocol: (§1) Erythritol solutions of respective concentrations in the range of from 30 to 60% were prepared. To these were inoculated Staphylococcus aureus IFO 13276, Bacillus subtilis IFO 3134, and Escherichia coli IFO 3972 as bacteria, Candida albicans IFO 1549 and Saccharomyces cerevisiae ATCC 9763 as yeasts, Aspergillus niger IFO 6342, Aspergillus flavus IFO 6343, and Penicillium funiculosum IFO 6345 as fungi, respectively, in a population (concentration) of 10,000 cells/mL or more. After the inoculation, the solutions were stored at 30, 37, 45, 50, or 60° C., respectively, for 56 days and the number of viable cell was determined daily. The determination of the number of viable cell was performed by a method of coating 0.1 mL of appropriately diluted sample cultivation on an agar plate and cultivating and counting the number of viable cell (the number of colony) that grew after the cultivation.

[2] = system: Candida albicans IFO 1549; experiment: Viable Count of Candida albicans IFO 1549 in Erythritol Solution; assay type: cell-based
Protocol: as §1

OC[C@@H](O)[C@@H](O)CO [Erythritol Solution, erythritol]
The Number of Viable Cell ([1]; 30° C., 30% w/w, Day 0): 10000 or more cells/mL | The Number of Viable Cell ([1]; 30° C., 30% w/w, Day 3): 2980 cells/mL | The Number of Viable Cell ([1]; 30° C., 30% w/w, Day 7): 440 cells/mL | The Number of Viable Cell ([1]; 30° C., 30% w/w, Day 14): 110 cells/mL | The Number of Viable Cell ([1]; 30° C., 30% w/w, Day 28): 750 cells/mL | The Number of Viable Cell ([1]; 30° C., 30% w/w, Day 56): 0 cells/mL | The Number of Viable Cell ([1]; 30° C., 40% w/w, Day 0): 10000 or more cells/mL | The Number of Viable Cell ([1]; 30° C., 40% w/w, Day 3): 300 cells/mL | The Number of Viable Cell ([1]; 30° C., 40% w/w, Day 7): 0 cells/mL | The Number of Viable Cell ([1]; 30° C., 40% w/w, Day 14): 20 cells/mL | The Number of Viable Cell ([1]; 30° C., 40% w/w, Day 28): 0 cells/mL | The Number of Viable Cell ([1]; 30° C., 40% w/w, Day 56): 0 cells/mL | The Number of Viable Cell ([1]; 37° C., 30% w/w, Day 0): 10000 or more cells/mL | The Number of Viable Cell ([1]; 37° C., 30% w/w, Day 3): 170 cells/mL | The Number of Viable Cell ([1]; 37° C., 30% w/w, Day 7): 11500 cells/mL | The Number of Viable Cell ([1]; 37° C., 30% w/w, Day 28): 1000 cells/mL | The Number of Viable Cell ([1]; 37° C., 30% w/w, Day 56): 0 cells/mL | The Number of Viable Cell ([1]; 37° C., 40% w/w, Day 0): 10000 or more cells/mL | The Number of Viable Cell ([1]; 37° C., 40% w/w, Day 3): 0 cells/mL | The Number of Viable Cell ([1]; 37° C., 40% w/w, Day 7): 0 cells/mL | The Number of Viable Cell ([1]; 37° C., 40% w/w, Day 14): 0 cells/mL | The Number of Viable Cell ([1]; 37° C., 40% w/w, Day 28): 0 cells/mL | The Number of Viable Cell ([1]; 37° C., 40% w/w, Day 56): 0 cells/mL | The Number of Viable Cell ([1]; 45° C., 30% w/w, Day 0): 10000 or more cells/mL | The Number of Viable Cell ([1]; 45° C., 30% w/w, Day 7): 110 cells/mL | The Number of Viable Cell ([1]; 45° C., 30% w/w, Day 14): 0 cells/mL | The Number of Viable Cell ([1]; 45° C., 30% w/w, Day 28): 0 cells/mL | The Number of Viable Cell ([1]; 45° C., 30% w/w, Day 56): 0 cells/mL | The Number of Viable Cell ([1]; 45° C., 50% w/w, Day 0): 10000 or more cells/mL | The Number of Viable Cell ([1]; 45° C., 50% w/w, Day 3): 30 cells/mL | The Number of Viable Cell ([1]; 45° C., 50% w/w, Day 7): 0 cells/mL | The Number of Viable Cell ([1]; 45° C., 50% w/w, Day 14): 0 cells/mL | The Number of Viable Cell ([1]; 45° C., 50% w/w, Day 28): 0 cells/mL | The Number of Viable Cell ([1]; 45° C., 50% w/w, Day 56): 0 cells/mL | The Number of Viable Cell ([1]; 50° C., 30% w/w, Day 0): 10000 or more cells/mL | The Number of Viable Cell ([1]; 50° C., 30% w/w, Day 3): 0 cells/mL | The Number of Viable Cell ([1]; 50° C., 30% w/w, Day 7): 0 cells/mL | The Number of Viable Cell ([1]; 50° C., 30% w/w, Day 14): 0 cells/mL | The Number of Viable Cell ([1]; 50° C., 30% w/w, Day 28): 0 cells/mL | The Number of Viable Cell ([1]; 50° C., 30% w/w, Day 56): 0 cells/mL | The Number of Viable Cell ([1]; 50° C., 40% w/w, Day 0): 10000 or more cells/mL | The Number of Viable Cell ([1]; 50° C., 40% w/w, Day 3): 0 cells/mL | The Number of Viable Cell ([1]; 50° C., 40% w/w, Day 7): 0 cells/mL | The Number of Viable Cell ([1]; 50° C., 40% w/w, Day 14): 0 cells/mL | The Number of Viable Cell ([1]; 50° C., 40% w/w, Day 28): 0 cells/mL | The Number of Viable Cell ([1]; 50° C., 40% w/w, Day 56): 0 cells/mL | The Number of Viable Cell ([1]; 50° C., 50% w/w, Day 0): 10000 or more cells/mL | The Number of Viable Cell ([1]; 50° C., 50% w/w, Day 3): 0 cells/mL | The Number of Viable Cell ([1]; 50° C., 50% w/w, Day 7): 0 cells/mL | The Number of Viable Cell ([1]; 50° C., 50% w/w, Day 14): 0 cells/mL | The Number of Viable Cell ([1]; 50° C., 50% w/w, Day 28): 0 cells/mL | The Number of Viable Cell ([1]; 50° C., 50% w/w, Day 56): 0 cells/mL | growth of the microbes ([1]; temperature of 50° C. or more): prevented from growing | time after which microbes died ([1]; temperature of 50° C. or more): 3 days | The Number of Viable Cell ([2]; 37° C., 30% w/w, Day 0): ≥ 10000 cells/mL | The Number of Viable Cell ([2]; 37° C., 30% w/w, Day 3): ≥ 10000 cells/mL | The Number of Viable Cell ([2]; 37° C., 30% w/w, Day 7): ≥ 10000 cells/mL | The Number of Viable Cell ([2]; 37° C., 30% w/w, Day 14): ≥ 10000 cells/mL | The Number of Viable Cell ([2]; 37° C., 30% w/w, Day 28): ≥ 10000 cells/mL | The Number of Viable Cell ([2]; 37° C., 30% w/w, Day 56): ≥ 10000 cells/mL | The Number of Viable Cell ([2]; 37° C., 40% w/w, Day 0): ≥ 10000 cells/mL | The Number of Viable Cell ([2]; 37° C., 40% w/w, Day 3): ≥ 10000 cells/mL | The Number of Viable Cell ([2]; 37° C., 40% w/w, Day 7): ≥ 10000 cells/mL | The Number of Viable Cell ([2]; 37° C., 40% w/w, Day 14): ≥ 10000 cells/mL | The Number of Viable Cell ([2]; 37° C., 40% w/w, Day 28): ≥ 10000 cells/mL | The Number of Viable Cell ([2]; 37° C., 40% w/w, Day 56): ≥ 10000 cells/mL | The Number of Viable Cell ([2]; 45° C., 30% w/w, Day 0): ≥ 10000 cells/mL | The Number of Viable Cell ([2]; 45° C., 30% w/w, Day 3): 190 cells/mL | The Number of Viable Cell ([2]; 45° C., 30% w/w, Day 7): 0 cells/mL | The Number of Viable Cell ([2]; 45° C., 30% w/w, Day 14): 0 cells/mL | The Number of Viable Cell ([2]; 45° C., 30% w/w, Day 28): 0 cells/mL | The Number of Viable Cell ([2]; 45° C., 30% w/w, Day 56): 0 cells/mL | The Number of Viable Cell ([2]; 45° C., 40% w/w, Day 0): ≥ 10000 cells/mL | The Number of Viable Cell ([2]; 45° C., 40% w/w, Day 3): 0 cells/mL | The Number of Viable Cell ([2]; 45° C., 40% w/w, Day 7): 0 cells/mL | The Number of Viable Cell ([2]; 45° C., 40% w/w, Day 14): 0 cells/mL | The Number of Viable Cell ([2]; 45° C., 40% w/w, Day 28): 0 cells/mL | The Number of Viable Cell ([2]; 45° C., 40% w/w, Day 56): 0 cells/mL | The Number of Viable Cell ([2]; 45° C., 50% w/w, Day 0): ≥ 10000 cells/mL | The Number of Viable Cell ([2]; 45° C., 50% w/w, Day 3): 0 cells/mL | The Number of Viable Cell ([2]; 45° C., 50% w/w, Day 7): 0 cells/mL | The Number of Viable Cell ([2]; 45° C., 50% w/w, Day 14): 0 cells/mL | The Number of Viable Cell ([2]; 45° C., 50% w/w, Day 28): 0 cells/mL | The Number of Viable Cell ([2]; 45° C., 50% w/w, Day 56): 0 cells/mL | The Number of Viable Cell ([2]; 50° C., 30% w/w, Day 0): ≥ 10000 cells/mL | The Number of Viable Cell ([2]; 50° C., 30% w/w, Day 3): 0 cells/mL | The Number of Viable Cell ([2]; 50° C., 30% w/w, Day 7): 0 cells/mL | The Number of Viable Cell ([2]; 50° C., 30% w/w, Day 14): 0 cells/mL | The Number of Viable Cell ([2]; 50° C., 30% w/w, Day 28): 0 cells/mL | The Number of Viable Cell ([2]; 50° C., 30% w/w, Day 56): 0 cells/mL | The Number of Viable Cell ([2]; 50° C., 40% w/w, Day 0): ≥ 10000 cells/mL | The Number of Viable Cell ([2]; 50° C., 40% w/w, Day 3): 0 cells/mL | The Number of Viable Cell ([2]; 50° C., 40% w/w, Day 7): 0 cells/mL | The Number of Viable Cell ([2]; 50° C., 40% w/w, Day 14): 0 cells/mL | The Number of Viable Cell ([2]; 50° C., 40% w/w, Day 28): 0 cells/mL | The Number of Viable Cell ([2]; 50° C., 40% w/w, Day 56): 0 cells/mL | The Number of Viable Cell ([2]; 50° C., 50% w/w, Day 0): ≥ 10000 cells/mL | The Number of Viable Cell ([2]; 50° C., 50% w/w, Day 3): 0 cells/mL | The Number of Viable Cell ([2]; 50° C., 50% w/w, Day 7): 0 cells/mL | The Number of Viable Cell ([2]; 50° C., 50% w/w, Day 14): 0 cells/mL | The Number of Viable Cell ([2]; 50° C., 50% w/w, Day 28): 0 cells/mL | The Number of Viable Cell ([2]; 50° C., 50% w/w, Day 56): 0 cells/mL | growth of the microbes ([2]; temperature of 50° C. or more): prevented from growing | time after which microbes died ([2]; temperature of 50° C. or more): 3 days
